Patent US20240182466A1, “A Crystal Form of a Fluorine-substituted Pyridopyrazole Compound and a Preparation Method Thereof” (JUMBO DRUG BANK CO., LTD, priority 2021, published 2024)

What was measured:
[1] = Hygroscopicity by dynamic vapor sorption (DVS); format: physicochemical; conditions: 80% RH/25° C.
Protocol: Instrument model: SMS DVS Intrinsic Plus dynamic steam adsorption instrument.
Test condition: a sample (10-20 mg) is taken and placed in a DVS sample tray for testing.
Detailed DVS parameters are as follows:
Balance: dm/dt=0.002%/min (minimum: 10 min, and maximum: 180 min).
Drying: it is dried at 0% relative humidity (RH) until dm/dt≤0.002%/min or maximum 180 min.
RH (%) test step range: 0%-95%-0%.
SMS DVS Intrinsic Plus dynamic steam adsorption instrument.
A sample (10-20 mg) was taken and placed in a DVS sample tray for testing.

[2] = Solid stability test of crystal form (XRPD); format: physicochemical; conditions: influencing factors and accelerated conditions
Protocol: According to the “Guiding Principles for Stability Test of Raw Materials and Preparations” (General Rule 9001 of Part Four of the Chinese Pharmacopoeia 2015 Edition), the stability of the crystal form A of the compound in Formula (I) was investigated under influencing factors ((high temperature (60° C., open), high humidity (room temperature/relative humidity 92.5%, open), strong light (visible light intensity of 5000 lux and ultraviolet intensity of […], open), and accelerated conditions (40° C./75% RH, open) and (60° C./75% RH, open)).
About 20 mg of the crystal form A of the compound in Formula (I) was weighed respectively, and it was placed at the bottom of a glass sample bottle, and spread into a thin layer. Its sample was completely exposed for sampling. The samples placed under different conditions were sampled for testing (XRPD) on day 5, day 10, 1 month, 2 months, and 3 months.

[3] = molecular target: EGFR (Homo sapiens (Human), UniProt P00533); assay: EGFR kinase test (33P-ATP filter binding); format: biochemical
Chain of EGFR (P00533 25-1210): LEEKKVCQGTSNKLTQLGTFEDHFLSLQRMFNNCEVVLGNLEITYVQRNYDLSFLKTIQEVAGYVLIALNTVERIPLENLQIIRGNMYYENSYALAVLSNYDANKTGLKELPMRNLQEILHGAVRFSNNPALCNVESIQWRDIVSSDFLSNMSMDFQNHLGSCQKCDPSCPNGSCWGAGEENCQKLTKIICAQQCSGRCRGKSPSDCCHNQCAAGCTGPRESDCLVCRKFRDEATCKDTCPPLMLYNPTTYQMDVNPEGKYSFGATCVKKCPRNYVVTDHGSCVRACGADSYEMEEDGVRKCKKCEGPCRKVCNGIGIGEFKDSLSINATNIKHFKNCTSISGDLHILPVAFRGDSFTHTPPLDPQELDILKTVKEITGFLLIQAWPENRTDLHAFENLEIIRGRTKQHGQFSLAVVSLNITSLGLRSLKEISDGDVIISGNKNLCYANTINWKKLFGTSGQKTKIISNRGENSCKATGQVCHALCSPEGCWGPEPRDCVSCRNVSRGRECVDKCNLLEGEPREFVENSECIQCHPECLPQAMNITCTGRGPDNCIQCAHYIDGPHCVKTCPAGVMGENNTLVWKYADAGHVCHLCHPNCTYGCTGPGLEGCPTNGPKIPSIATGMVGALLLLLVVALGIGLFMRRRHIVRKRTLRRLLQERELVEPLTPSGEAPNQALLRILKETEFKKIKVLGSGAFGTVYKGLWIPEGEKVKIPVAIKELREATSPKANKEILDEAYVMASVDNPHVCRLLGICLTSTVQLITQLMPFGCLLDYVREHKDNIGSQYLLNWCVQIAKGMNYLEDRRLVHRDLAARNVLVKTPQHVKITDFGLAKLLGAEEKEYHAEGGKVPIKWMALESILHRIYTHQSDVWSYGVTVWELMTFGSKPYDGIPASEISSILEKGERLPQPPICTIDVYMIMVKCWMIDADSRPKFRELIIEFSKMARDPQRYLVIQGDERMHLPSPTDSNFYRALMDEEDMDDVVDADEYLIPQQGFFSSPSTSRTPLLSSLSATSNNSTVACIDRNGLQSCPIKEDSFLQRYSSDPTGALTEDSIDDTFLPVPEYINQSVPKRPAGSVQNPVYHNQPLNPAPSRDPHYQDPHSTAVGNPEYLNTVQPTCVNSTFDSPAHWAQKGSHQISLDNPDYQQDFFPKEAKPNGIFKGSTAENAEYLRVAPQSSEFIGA
Protocol: (§1) Experimental example 1: EGFR, ITK, TEC, and BTK kinase'test.
(§2) Buffer condition: 20 mM HEPES(pH 7.5), 10 mM MgCl2, 1 mM EGTA, 0.02% Brij35, 0.02 mg/mL BSA, 0.1 mm Na3VO4, 2 mm; DTT, 1% DMSO.
(§3) 2.1. An indicator substrate was prepared in a reaction buffer prepared newly.
(§4) 2.2. A cofactor required was transferred to the substrate solution above.
(§5) 2.3. A kinase indicated was injected into the substrate solution and mixed gently.
(§6) 2.4. An acoustic technology was used to convey a compound in DMSO to a kinase reaction mixture (Echo550).
(§7) 2.5. ^33P-ATP (specific activity 0.01 μci/μL, finally) was fed into the reaction mixture to initiate a reaction. (ATP final concentrations were 2 μM, 5 μM, and 5 μM respectively).
(§8) 2.6. The kinase reaction was incubated at room temperature for 120 min.
(§9) 2.7. The reaction was recorded on P81 ion exchange paper (Whatman #3698-915).
(§10) 2.8. 0.75% phosphoric acid was widely used to clean a filter.
(§11) 2.9. The remaining radioactive phosphorylation substrate on filter paper was measured.
(§12) 3. Data analysis: the kinase activity data was expressed as a percentage of the remaining kinase activity in the test sample compared to the carrier (dimethyl sulfoxide) reaction. The IC50 value and curve fitting were obtained by using Prism4 software (GraphPad).

[4] = molecular target: ITK (Homo sapiens (Human), UniProt Q08881); assay: ITK kinase test (33P-ATP filter binding); format: biochemical
Chain of ITK (Q08881 whole entry): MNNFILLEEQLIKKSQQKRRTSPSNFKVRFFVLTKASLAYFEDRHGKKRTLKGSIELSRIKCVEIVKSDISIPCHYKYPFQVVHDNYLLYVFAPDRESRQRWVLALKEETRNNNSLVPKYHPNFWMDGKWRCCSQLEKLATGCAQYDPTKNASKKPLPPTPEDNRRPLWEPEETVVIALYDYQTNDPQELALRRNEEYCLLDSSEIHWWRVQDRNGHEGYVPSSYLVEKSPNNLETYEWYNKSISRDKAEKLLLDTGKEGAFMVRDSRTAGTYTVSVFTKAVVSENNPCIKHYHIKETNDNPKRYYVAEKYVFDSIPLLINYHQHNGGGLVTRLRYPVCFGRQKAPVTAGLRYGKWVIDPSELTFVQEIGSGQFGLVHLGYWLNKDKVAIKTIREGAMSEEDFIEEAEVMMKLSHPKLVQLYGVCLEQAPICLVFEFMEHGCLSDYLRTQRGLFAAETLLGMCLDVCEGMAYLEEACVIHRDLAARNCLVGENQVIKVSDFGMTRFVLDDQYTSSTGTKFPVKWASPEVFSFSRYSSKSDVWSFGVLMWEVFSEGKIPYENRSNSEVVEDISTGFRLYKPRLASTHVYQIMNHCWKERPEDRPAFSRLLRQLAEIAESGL
Protocol: as §1, §2, §3, §4, §5, §6, §7, §8, §9, §10, §11, §12

[5] = molecular target: TEC (Homo sapiens (Human), UniProt P42680); assay: TEC kinase test (33P-ATP filter binding); format: biochemical
Chain of TEC (P42680 whole entry): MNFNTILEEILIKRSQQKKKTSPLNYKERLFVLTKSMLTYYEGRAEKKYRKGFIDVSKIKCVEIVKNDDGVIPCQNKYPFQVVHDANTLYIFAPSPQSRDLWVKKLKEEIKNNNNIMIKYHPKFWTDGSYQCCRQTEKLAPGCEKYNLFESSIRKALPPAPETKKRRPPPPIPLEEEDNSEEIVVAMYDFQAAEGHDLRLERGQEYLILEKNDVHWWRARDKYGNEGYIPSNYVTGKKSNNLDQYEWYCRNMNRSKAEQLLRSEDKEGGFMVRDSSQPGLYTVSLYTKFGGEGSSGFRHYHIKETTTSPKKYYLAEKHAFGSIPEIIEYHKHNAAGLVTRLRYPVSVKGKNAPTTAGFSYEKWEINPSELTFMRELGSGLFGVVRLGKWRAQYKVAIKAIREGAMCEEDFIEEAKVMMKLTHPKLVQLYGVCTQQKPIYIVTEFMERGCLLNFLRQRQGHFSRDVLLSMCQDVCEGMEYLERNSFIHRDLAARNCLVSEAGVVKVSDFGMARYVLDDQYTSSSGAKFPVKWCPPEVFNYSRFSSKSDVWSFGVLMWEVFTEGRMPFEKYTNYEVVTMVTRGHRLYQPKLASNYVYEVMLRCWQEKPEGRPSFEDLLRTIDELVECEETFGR
Protocol: as §1, §2, §3, §4, §5, §6, §7, §8, §9, §10, §11, §12

[6] = molecular target: BTK (Homo sapiens (Human), UniProt Q06187); assay: BTK kinase test (33P-ATP filter binding); format: biochemical; conditions: 120 min at room temperature
Chain of BTK (Q06187 whole entry): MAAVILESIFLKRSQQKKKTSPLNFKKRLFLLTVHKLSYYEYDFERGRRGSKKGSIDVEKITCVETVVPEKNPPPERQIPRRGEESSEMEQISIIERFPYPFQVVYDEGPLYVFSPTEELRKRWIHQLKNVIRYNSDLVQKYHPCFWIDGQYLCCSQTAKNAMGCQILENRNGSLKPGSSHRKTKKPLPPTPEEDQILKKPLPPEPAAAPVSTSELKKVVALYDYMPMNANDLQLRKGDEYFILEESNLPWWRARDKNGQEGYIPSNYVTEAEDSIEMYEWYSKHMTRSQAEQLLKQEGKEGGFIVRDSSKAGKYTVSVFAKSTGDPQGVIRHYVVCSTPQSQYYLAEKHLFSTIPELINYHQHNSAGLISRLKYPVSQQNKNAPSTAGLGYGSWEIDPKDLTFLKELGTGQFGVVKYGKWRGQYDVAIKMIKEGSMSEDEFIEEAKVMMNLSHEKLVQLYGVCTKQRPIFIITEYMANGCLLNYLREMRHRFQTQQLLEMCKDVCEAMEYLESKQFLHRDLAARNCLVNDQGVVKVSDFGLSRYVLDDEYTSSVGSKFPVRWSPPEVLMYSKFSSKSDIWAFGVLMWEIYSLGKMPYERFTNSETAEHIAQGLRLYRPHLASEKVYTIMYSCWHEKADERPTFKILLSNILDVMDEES
Protocol: as §1, §2, §3, §4, §5, §6, §7, §8, §9, §10, §11, §12

[7] = 33P-ATP, 120 min at room temperature

Hygroscopic classification [1] | ΔW, hygroscopic weight increase [1] [%] | Solid stability, conclusion in words [2] | SMILES | IC50 [3, 7] [µM] | EGFR, ITK, TEC, and BTK activity ratio: EGFR to BTK ([3]; IC50 EGFR / IC50 BTK) | IC50 [4, 7] [µM] | EGFR, ITK, TEC, and BTK activity ratio: ITK to BTK ([4]; IC50 ITK / IC50 BTK) | IC50 [5, 7] [µM] | EGFR, ITK, TEC, and BTK activity ratio: TEC to BTK ([5]; IC50 TEC / IC50 BTK) [times] | IC50 [6] [µM]
slight hygroscopicity | 0.23 | good stability | C=CC(=O)N1CCC[C@@H](c2nn(-c3ccc(Oc4cccc(F)c4F)cc3)c3cncc(F)c23)C1 |  |  |  |  |  |  | 
 |  |  | C=CC(=O)N1CCC[C@H](c2nn(-c3ccc(Oc4cccc(F)c4F)cc3)c3cncc(F)c23)C1 (single isomer, unassigned) [Compound 1B] | 0.829 | 383 times, | 5.43 | 2513 times, | 0.0748 | 34 | 0.00216
